Reference: patent US20250170267A1, “ANTIBODY-DRUG CONJUGATE PRECURSOR AND INTERMEDIATE FOR SYNTHESIS THEREOF” (UBE Corporation, priority 2022, published 2025)
Numbered stars: 1 amine (or outer) side, 2 acyl side, 3 side chain; on linkers, the order of the positions; unused ones are H or OH. Square brackets hold non-standard residues; d marks the D form. Peptide text beside a SMILES is read from it. * marks the point of attachment. βAla(2S-maleimido) = O=C1C=CC(=O)N1[C@@H](CN[*:1])C(=O)[*:2]; Dolaproine = CO[C@@H]([C@@H]1CCCN1)[C@@H](C)C(=O)O; Propanoyl(3-maleimido) = O=C1C=CC(=O)N1CCC(=O)*; Dil = CC[C@H](C)[C@H](NC)[C@@H](CC(=O)O)OC; X3 = C[C@@H](N*)[C@@H](OP(=O)(O)O)c1ccccc1; Propanoyl(3-PO3H2) = O=C(CCP(=O)(O)O)*; PABC = O=C(OCc1ccc(N[*:1])cc1)[*:2]; X1 = C[C@@H](N*)[C@@H](O)c1ccccc1; hSer(lactone) = O=C1OCC[C@@H]1N*; Cit = NC(=O)NCCC[C@H](N)C(=O)O; PEG4 = NCCOCCOCCOCCOCCC(=O)O; NMeV = CN[C@H](C(=O)O)C(C)C

Legend:
human topoisomerase I = target: T1, human topoisomerase I (Homo sapiens, UniProt P11387); assay: Topoisomerase I activity inhibition test; assay type: biochemical; settings: supercoiled plasmid DNA, 37° C., 60 minutes
T1 construct: purchased Sigma T9069
T1 sequence (P11387 1-765): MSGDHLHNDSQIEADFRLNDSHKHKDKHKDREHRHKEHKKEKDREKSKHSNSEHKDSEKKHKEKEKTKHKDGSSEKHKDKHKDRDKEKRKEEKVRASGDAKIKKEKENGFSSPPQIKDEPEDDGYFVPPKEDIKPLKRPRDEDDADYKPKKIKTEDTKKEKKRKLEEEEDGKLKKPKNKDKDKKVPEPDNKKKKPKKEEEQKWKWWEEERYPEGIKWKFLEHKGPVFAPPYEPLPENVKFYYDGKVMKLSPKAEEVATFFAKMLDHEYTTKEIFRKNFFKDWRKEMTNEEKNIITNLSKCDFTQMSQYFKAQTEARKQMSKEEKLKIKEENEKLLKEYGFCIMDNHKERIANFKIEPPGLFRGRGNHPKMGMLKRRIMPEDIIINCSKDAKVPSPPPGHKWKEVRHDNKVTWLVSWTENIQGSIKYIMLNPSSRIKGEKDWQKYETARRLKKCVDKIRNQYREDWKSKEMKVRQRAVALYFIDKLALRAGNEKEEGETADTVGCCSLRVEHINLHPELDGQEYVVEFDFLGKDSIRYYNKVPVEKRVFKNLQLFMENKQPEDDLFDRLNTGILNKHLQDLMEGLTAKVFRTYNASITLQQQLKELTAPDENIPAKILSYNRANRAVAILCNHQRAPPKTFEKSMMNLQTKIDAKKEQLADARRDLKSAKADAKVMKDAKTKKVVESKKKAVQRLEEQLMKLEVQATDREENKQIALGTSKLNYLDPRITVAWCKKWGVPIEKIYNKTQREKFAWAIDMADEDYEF
Experimental: For measuring topoisomerase I activity inhibitory actions, Human DNA Topoisomerase I Assay Kit (manufactured by ProFoldin, HRA100K) was used. A human topoisomerase I (manufactured by Sigma, T9069) was added to a Tris-HCl buffer containing KCl, DTT, MgCl2, EDTA, and BSA to prepare a reaction solution. The reaction solution (35.2 μL) and a test compound solution (4.4 μL) prepared by an aqueous solution containing 10% DMSO were mixed in a 1.5 mL microtube, and the resulting mixture was reacted at 37° C. for 10 minutes. Subsequently, a supercoiled plasmid DNA (4.4 μL) was added thereto, and the resulting mixture was reacted at 37° C. for 60 minutes. After the reaction, the solution was added to a 96 well plate (manufactured by Corning Inc., 3904) at 40 μL/well, and a Dye H19 solution (250 μL) diluted 10 times with the buffer included with the kit was added thereto. A microplate reader (Infinite F500, manufactured by TECAN) was used to measure the fluorescence intensity (excitation wavelength: 485 nm, detection wavelength: 535 nm) of each well.
The topoisomerase I activity inhibition rate (%) was calculated by the following equation.

human liver Cathepsin B = target: T2, human liver Cathepsin B (Homo sapiens, UniProt P07858); assay: Metabolism test using human liver Cathepsin B; assay type: in vitro ADME; settings: 37° C., 24 hours, released drug, LC-MS/MS
T2 construct: human liver Cathepsin B (manufactured by Sigma-Aldrich Co. LLC, Cat No. C8571 25 μg/vial); purchased Sigma-Aldrich Co. LLC C8571; host or cells: human liver
Experimental: To human liver Cathepsin B (manufactured by Sigma-Aldrich Co. LLC, Cat No. C8571 25 μg/vial)(corresponding to 400 Unit/mL)(5 μL), X10 Catabolic Buffer (manufactured by SEKISUI-Xenotech, LLC., K5200)(10 μL), 2.5 mM Bovine Serum Albumin (manufactured by FUJIFILM Wako Pure Chemical Corporation, Cat No. 012-15093)(5 μL), and distilled water (manufactured by FUJIFILM Wako Pure Chemical Corporation, for HPLC)(55 μL) was added 1.2 μM test compound (antibody-drug conjugate prepared in ADC Production examples)(25 μL) dissolved in PBS to prepare a reaction solution. After the reaction solution was incubated at 37° C. for 24 hours, “an antitumor drug molecule or an analog thereof, or a derivative thereof” released from the antibody-drug conjugate into the reaction solution was quantified by LC-MS/MS (high performance liquid chromatography/mass spectrometer system) under the following conditions. LC-MS/MS analysis conditions
(§1) LC: LC20 or LC30 HPLC system manufactured by Shimadzu Corporation
(§2) Column: Phenomenex Kinetex C18 (50×2.1 mm, 2.6 μm)
(§3) Column temperature: 40° C.
(§4) Mobile phase A: 0.1% aqueous solution of formic acid, Mobile phase B: 0.1% solution of formic acid in a mixture of 50% acetonitrile/methanol
(§5) Mode: Positive or Negative
(§6) The release rate (%) of drug was calculated by the following equation.

[1] = Pharmacokinetic test (serum trastuzumab residual rate); assay type: in vivo; settings: female BALB/c mouse, intravenous; 3 days vs 5 minutes after administration
Text: After a prescribed time period, the blood was collected from the jugular vein or abdominal vein, and centrifuged to prepare a serum. The resulting serum was cryopreserved until the measurement.

human liver lysosome = assay: Metabolism test using human liver lysosomal fraction; assay type: in vitro ADME; settings: 37° C., 24 hours, released drug, LC-MS/MS
Experimental: To a reaction composition solution (X10 Catabolic Buffer (manufactured by SEKISUI-Xenotech, LLC., K5200))(60 μL) in which human liver lysosome (manufactured by SEKISUI-Xenotech, LLC., Cat No. H610.L 2.5 mg/mL)(corresponding to 0.125 mg of protein) was suspended and distilled water (manufactured by FUJIFILM Wako Pure Chemical Corporation, for HPLC)(10 μL) was added 1.2 μM test compound (antibody-drug conjugate produced in ADC Production examples)(25 μL) dissolved in PBS to prepare a reaction solution. After the reaction solution was incubated at 37° C. for 24 hours, “an antitumor drug molecule or an analog thereof, or a derivative thereof” released from the antibody-drug conjugate into the reaction solution was quantified by LC-MS/MS (high performance liquid chromatography/mass spectrometer system) under the following conditions. LC-MS/MS analysis conditions
as §1, §2, §3, §4, §5, §6

[2] = Retention time in HPLC (index of hydrophilicity); assay type: physicochemical; settings: BEH C18, 0.1% formic acid/acetonitrile gradient, 40° C.
Experimental: As an index of hydrophilicity of the Examples, the retention time (RT) in HPLC analysis was measured, and compared.
Device: LCMS2020 system Shimadzu Corporation
Column: Acquity UPLC (registered trademark) BEH C18 (2.1×50 mm, 1.7 μm)_Waters
Eluent: Solution A: 0.1% aqueous solution of formic acid, Solution B: 0.1% solution of formic acid in acetonitrile

SMILES: CC[C@@]1(O)C(=O)OCc2c1cc1n(c2=O)Cc2c-1nc1cc(F)c(C)c3c1c2[C@@H](NC(=O)CNC)CC3 [Example U-003]
- IC50 (human topoisomerase I): ≤ 15 µM

SMILES: C=C1C[C@@H]2CC[C@@]34C[C@H]5O[C@H]6[C@@H](O3)[C@H]3O[C@H](CC[C@@H]3O[C@H]6[C@H]5O4)CC(=O)C[C@@H]3[C@@H](OC)[C@@H](C[C@H](O)CNC(=O)OCc4ccc(NC(=O)[C@H](CCCNC(N)=O)NC(=O)[C@@H](NC(=O)[C@H](CC(=O)N[C@H]5CCOC5=O)NC(=O)[C@H](CCCCN(C)C)NC(=O)CCOCCOCCOCCOCCNC(=O)[C@H](CNC(=O)CCP(=O)(O)O)N5C(=O)C=CC5=O)C(C)C)cc4)O[C@H]3C[C@H]3O[C@@H](CC[C@@H]1O2)C[C@@H](C)C3=C [Example 18]
- Release rate (%) of drug from ADC (human liver Cathepsin B): 64%
- Serum trastuzumab residual rate after 3 days from administration (%) [1]: 73%
- Release rate (%) of drug from ADC (human liver lysosome): 75%
- Retention time in HPLC measurement ([2]; Table 6 (eribulin precursors)): 0.96 min

SMILES: CC[C@@]1(O)C(=O)OCc2c1cc1n(c2=O)Cc2c-1nc1cc(F)c(C)c3c1c2[C@@H](NC(C)=O)CC3 [Example U-001]
- IC50 (human topoisomerase I): ≤ 15 µM

SMILES: CC[C@H](C)[C@@H]([C@@H](CC(=O)N1CCC[C@H]1[C@H](OC)[C@@H](C)C(=O)N[C@H](C)[C@@H](O)c1ccccc1)OC)N(C)C(=O)[C@@H](NC(=O)[C@H](C(C)C)N(C)C(=O)OCc1ccc(NC(=O)[C@H](CCCNC(N)=O)NC(=O)[C@@H](NC(=O)[C@H](CC(=O)N[C@H]2CCOC2=O)NC(=O)CCOCCOCCOCCOCCNC(=O)[C@H](CNC(=O)CCP(=O)(O)O)N2C(=O)C=CC2=O)C(C)C)cc1)C(C)C [Example 8] ({Propanoyl(3-PO3H2)}-[βAla(2S-maleimido)][PEG4]D(hSer(lactone))V[Cit][PABC][NMeV]V[Dil][Dolaproine]-X1)
- Release rate (%) of drug from ADC (human liver Cathepsin B): 41%
- Release rate (%) of drug from ADC (human liver lysosome): 60%
- Retention time in HPLC measurement ([2]; Table 5 (MMAE-type precursors)): 1.03 min

SMILES: CC[C@H](C)[C@@H]([C@@H](CC(=O)N1CCC[C@H]1[C@H](OC)[C@@H](C)C(=O)N[C@H](C)[C@@H](OP(=O)(O)OCc1ccc(NC(=O)[C@H](CCCNC(N)=O)NC(=O)[C@@H](NC(=O)[C@H](CC(=O)N[C@H]2CCOC2=O)NC(=O)CCOCCOCCOCCOCCNC(=O)[C@H](CNC(=O)CCP(=O)(O)O)N2C(=O)C=CC2=O)C(C)C)cc1)c1ccccc1)OC)N(C)C(=O)[C@@H](NC(=O)[C@H](C(C)C)N(C)C)C(C)C [Example 3]
- Retention time in HPLC measurement ([2]; Table 5 (MMAE-type precursors)): 0.70 min

SMILES: C=C1C[C@@H]2CC[C@@]34C[C@H]5O[C@H]6[C@@H](O3)[C@H]3O[C@H](CC[C@@H]3O[C@H]6[C@H]5O4)CC(=O)C[C@@H]3[C@@H](OC)[C@@H](C[C@@H](CNC(=O)OCc4ccc(NC(=O)[C@H](CCCNC(N)=O)NC(=O)[C@@H](NC(=O)[C@H](CC(=O)N[C@H]5CCOC5=O)NC(=O)CCOCCOCCOCCOCCNC(=O)[C@H](CNC(=O)CCP(=O)(O)O)N5C(=O)C=CC5=O)C(C)C)cc4)OP(=O)(O)O)O[C@H]3C[C@H]3O[C@@H](CC[C@@H]1O2)C[C@@H](C)C3=C [Example 26]
- Retention time in HPLC measurement ([2]; Table 6 (eribulin precursors)): 0.91 min

SMILES: CC[C@H](C)[C@@H]([C@@H](CC(=O)N1CCC[C@H]1[C@H](OC)[C@@H](C)C(=O)N[C@H](C)[C@@H](OP(=O)(O)O)c1ccccc1)OC)N(C)C(=O)[C@@H](NC(=O)[C@H](C(C)C)N(C)C(=O)OCc1ccc(NC(=O)[C@H](CCCNC(N)=O)NC(=O)[C@@H](NC(=O)[C@H](CC(=O)N[C@H]2CCOC2=O)NC(=O)CCOCCOCCOCCOCCNC(=O)CCN2C(=O)C=CC2=O)C(C)C)cc1)C(C)C [Example 2] ({Propanoyl(3-maleimido)-PEG4}-D(hSer(lactone))V[Cit][PABC][NMeV]V[Dil][Dolaproine]-X3)
- Retention time in HPLC measurement ([2]; Table 5 (MMAE-type precursors)): 0.96 min
